Source: the NIST ThermoML archive (doi:10.1016/j.jct.2009.07.002)
± gives the expanded uncertainty stated by the source.

Test: isobaric coefficient of expansion
Conditions: Liquid, DSC with Pressure Shift

CCCC(C)O (stereo not drawn) [pentan-2-ol]
isobaric coefficient of expansion
Conditions | 278.15 K | 288.15 K | 298.15 K | 308.15 K | 318.15 K | 328.15 K | 338.15 K | 348.15 K
5000 kPa | 0.000883 ± 3.7e-05 1/K | 0.000922 ± 3.9e-05 1/K | 0.000961 ± 4.1e-05 1/K | 0.00101 ± 4.3e-05 1/K | 0.00106 ± 4.5e-05 1/K | 0.0011 ± 4.7e-05 1/K | 0.00114 ± 4.9e-05 1/K | 0.00119 ± 5e-05 1/K
10000 kPa | 0.000858 ± 3.6e-05 1/K | 0.000896 ± 3.8e-05 1/K | 0.000935 ± 4e-05 1/K | 0.000983 ± 4.2e-05 1/K | 0.00103 ± 4.4e-05 1/K | 0.00107 ± 4.5e-05 1/K | 0.00111 ± 4.7e-05 1/K | 0.00115 ± 4.9e-05 1/K
15000 kPa | 0.00084 ± 3.6e-05 1/K | 0.00088 ± 3.7e-05 1/K | 0.000914 ± 3.9e-05 1/K | 0.000956 ± 4.1e-05 1/K | 0.001 ± 4.2e-05 1/K | 0.00103 ± 4.4e-05 1/K | 0.00107 ± 4.6e-05 1/K | 0.00111 ± 4.7e-05 1/K
20000 kPa | 0.000827 ± 3.5e-05 1/K | 0.000857 ± 3.6e-05 1/K | 0.00089 ± 3.8e-05 1/K | 0.000929 ± 3.9e-05 1/K | 0.000971 ± 4.1e-05 1/K | 0.00101 ± 4.3e-05 1/K | 0.00105 ± 4.4e-05 1/K | 0.00108 ± 4.6e-05 1/K
25000 kPa | 0.000801 ± 3.4e-05 1/K | 0.000842 ± 3.6e-05 1/K | 0.000872 ± 3.7e-05 1/K | 0.000909 ± 3.9e-05 1/K | 0.000946 ± 4e-05 1/K | 0.000983 ± 4.2e-05 1/K | 0.00102 ± 4.3e-05 1/K | 0.00105 ± 4.4e-05 1/K
30000 kPa | 0.000789 ± 3.3e-05 1/K | 0.000823 ± 3.5e-05 1/K | 0.000851 ± 3.6e-05 1/K | 0.000889 ± 3.8e-05 1/K | 0.000923 ± 3.9e-05 1/K | 0.000957 ± 4.1e-05 1/K | 0.000991 ± 4.2e-05 1/K | 0.00102 ± 4.3e-05 1/K
35000 kPa | 0.000773 ± 3.3e-05 1/K | 0.000805 ± 3.4e-05 1/K | 0.000834 ± 3.5e-05 1/K | 0.000868 ± 3.7e-05 1/K | 0.000902 ± 3.8e-05 1/K | 0.000933 ± 4e-05 1/K | 0.000967 ± 4.1e-05 1/K | 0.000995 ± 4.2e-05 1/K
40000 kPa | 0.000756 ± 3.2e-05 1/K | 0.000788 ± 3.3e-05 1/K | 0.00081 ± 3.4e-05 1/K | 0.00085 ± 3.6e-05 1/K | 0.000879 ± 3.7e-05 1/K | 0.000914 ± 3.9e-05 1/K | 0.000941 ± 4e-05 1/K | 0.00097 ± 4.1e-05 1/K
45000 kPa | 0.000745 ± 3.2e-05 1/K | 0.000775 ± 3.3e-05 1/K | 0.000799 ± 3.4e-05 1/K | 0.00083 ± 3.5e-05 1/K | 0.00086 ± 3.7e-05 1/K | 0.000889 ± 3.8e-05 1/K | 0.00092 ± 3.9e-05 1/K | 0.000946 ± 4e-05 1/K
50000 kPa | 0.00073 ± 3.1e-05 1/K | 0.000758 ± 3.2e-05 1/K | 0.000784 ± 3.3e-05 1/K | 0.000814 ± 3.5e-05 1/K | 0.000841 ± 3.6e-05 1/K | 0.000872 ± 3.7e-05 1/K | 0.000899 ± 3.8e-05 1/K | 0.000923 ± 3.9e-05 1/K
55000 kPa | 0.000719 ± 3.1e-05 1/K | 0.000745 ± 3.2e-05 1/K | 0.000766 ± 3.3e-05 1/K | 0.000793 ± 3.4e-05 1/K | 0.000819 ± 3.5e-05 1/K | 0.000844 ± 3.6e-05 1/K | 0.000866 ± 3.7e-05 1/K | 0.000888 ± 3.8e-05 1/K
